What all share (format): in vivo, rabbit
Test [1] has as its system WHHL rabbits. Nature of the test: Total plasma cholesterol (TC) level in WHHL rabbits after 16 weeks of administration. As to conditions: Pitavastatin 0.5 mg/kg, compound 1 10 mg/kg; for Total plasma cholesterol (mg/dL) Mean ± S.E: male homozygous WHHL rabbits, via drinking water for 16 weeks, control 646.8 ± 27.1. As to the method:
For the investigation of the effect of these drugs on total plasma cholesterol (TC), one or both of the compound 1 (10 mg/kg) and Pitavastatin (0.5 mg/kg) were administered to WHHL rabbits via drinking water for 16 weeks to measure the TC of each of the WHHL rabbits.
(§1) A WHHL rabbit was discovered by Dr. Yoshio Watanabe, a former medical professor at Kobe University in 1973, and was established as a strain. The WHHL rabbit is a model animal which naturally develops hypercholesterolemia and arteriosclerosis. Using such WHHL rabbits, the effect of the drugs on plaque stabilization was examined according to the following method.
(§2) Male homozygous WHHL rabbits (Kitayama Labes, Nagano) were purchased from Oriental Yeast (Tokyo), and WHHL rabbits aged about 4 months were used for experiment. For control, single administration of Pitavastatin, single administration of the compound 1, combined administration of Pitavastatin and the compound 1, 8 WHHL rabbits, 7 WHHL rabbits, 3 WHHL rabbits, and 4 WHHL rabbits were used, respectively.
(§3) Pitavastatin was synthesized by Nissan Chemical Industries, Ltd. (Tokyo) and was supplied therefrom. In the case of administration of Pitavastatin, 0.5 mg/kg of Pitavastatin dissolved in 400 mL (which is an average amount of drinking water per rabbit a day) of drinking water was administered to each rabbit. In the case of administration of the compound 1, 10 mg/kg (in terms of free base) of the compound 1 dissolved in 400 mL (which is an average amount of drinking water per rabbit a day) of ion-exchange water was administered to each rabbit. One or both of the drugs were administered for 16 weeks.
In the next morning after last administration, each of the rabbits was placed in a restraining box, and the ear of the rabbit was sterilized with an alcohol. Then, about 1 mL of blood was collected from an ear vein with a syringe containing EDTA (final concentration, 0.1%). The collected blood was centrifuged at 4,200×g for 5 minutes to fractionate plasma. TC was measured using cholesterol E-test Wako (by a cholesterol oxidaseΩDAOS method).
(§4) The results of TC and the ratio of aortic plaque area were expressed as average±standard error. Significance test between the control group and the drug administration groups were detected using Dunnett's test. Histopathological findings were evaluated in terms of the percentage of plaque area occupied by macrophages and the percentage of plaque area occupied by collagen.

Test [2] deals with WHHL rabbits. Nature of the test: Ratio of aortic plaque area in WHHL rabbits. The settings on record: Pitavastatin 0.5 mg/kg, compound 1 10 mg/kg; for Ratio of aortic plaque area (%) Mean ± S.E: plaque area/aortic intimal surface area×100, 16 weeks via drinking water, control 49.6 ± 5.0; for Inhibition ratio (%) of ratio of aortic plaque area: vs control group, 16 weeks via drinking water.
Description: as §1, §2, §3
The rabbit was perfused at a perfusion pressure of 120 mmH2O with physiological saline injected from a cardiac apex for about 5 minutes. Further, the rabbit was perfused with 4% paraformaldehyde in the same manner as described above to fix an aorta. The aorta was excised from the rabbit, and fat and connective tissue attached to the aorta were separated. An incision was made along the lesser curvature of the aorta, and then the greater curvature of the aorta was partially incised. The aorta was sandwiched between plastic films in such a manner that the intimal side of the aorta was observed, and a macro image was taken (CAMEDIA E-10, manufactured by Olympus Corporation). Based on the image, plaque area (that is, the area of lipid deposition) and aortic intimal surface area were analyzed by an image analyzer (Win Roof Ver. 5.0, manufactured by MITANI CORPORATION). The ratio of aortic plaque area of each of the rabbits was obtained using the formula:
plaque area/aortic intimal surface area×100
as §4

In test [3] the test system is WHHL rabbits. Nature of the test: Histopathology of Azan-stained aortic arch, image analysis of plaque area occupied by macrophages and collagen. As to conditions: Azan stain, 16 weeks, Pitavastatin 0.5 mg/kg, compound 1 10 mg/kg; for percentage of plaque area occupied by collagen: control 26.5%; for percentage of plaque area occupied by macrophages: control 29.5%.
Description: In addition to the evaluation of TC, an aorta excised from each WHHL rabbit was histopathologically examined After the completion of measurement, an aortic arch of each WHHL rabbit was immersion-fixed with 4% paraformaldehyde overnight, and was then embedded in paraffin in the usual manner to prepare a paraffin section. The paraffin section was stained with Azan stain. […] FIGS. 1A to 1D are microscope photographs of Azan-stained aortic arches of the WHHL rabbits, and FIGS. 2A and 2B are graphs which show the analysis results of the images shown in FIGS. 1A to 1D. In this regard, it is to be noted that FIG. 1A is a microscope photograph of a control group to which no drug was administered, FIG. 1B is a microscope photograph of a group to which Pitavastatin was administered in single, FIG. 1C is a microscope photograph of a group to which the compound 1 was administered in single, and FIG. 1D is a microscope photograph of a group to which Pitavastatin and the compound 1 were administered in combination.
as §1, §2
as §3, with “weeks. […]” for “weeks.”
as §4

Take `CSc1cc(C)nc(SC)c1NC(=O)CN1CCN(CCSc2nc3ccccc3[nH]2)CC1` [Compound 1, 2-[4-[2-(benzimidazole-2-ylthio)ethyl]piperazin-1-yl]-N-[2,4-bis(methylthio)-6-methyl-3-pyridyl]acetamide]: the “effect on TC (in words)” value in the test with WHHL rabbits [1] (WHHL rabbits, 16 weeks via drinking water) is on record as “no effect on TC”. For the same compound, the “Total plasma cholesterol (mg/dL) Mean ± S.E” value in the test with WHHL rabbits [1] is 648.3 ± 82.2 mg/dL. Besides, in the test on WHHL rabbits [2], the “Ratio of aortic plaque area (%) Mean ± S.E” value is 43.7 ± 4.1% and the “Inhibition ratio (%) of ratio of aortic plaque area” value amounted to 11.9%. In the test with WHHL rabbits [3], the “percentage of plaque area occupied by collagen” value was 44.8% and the “percentage of plaque area occupied by macrophages” value was found to be 14.9%.

As for `O=C(O)C[C@H](O)C[C@H](O)/C=C/c1c(C2CC2)nc2ccccc2c1-c1ccc(F)cc1` [Pitavastatin], the “Total plasma cholesterol (mg/dL) Mean ± S.E” value in the test with WHHL rabbits [1] is 524.2 ± 35.6 mg/dL. Moreover, the “Inhibition ratio (%) of total plasma cholesterol” value in the test on WHHL rabbits [1] (vs control group, WHHL rabbits, 16 weeks via drinking water) is on record as 19%. Besides, in the test on WHHL rabbits [2], the “Ratio of aortic plaque area (%) Mean ± S.E” value stood at 47.1 ± 6.6% and the “Inhibition ratio (%) of ratio of aortic plaque area” value is given as 5.0%. For the same compound, in the test on WHHL rabbits [3], the “percentage of plaque area occupied by collagen” value is 34.7% and the “percentage of plaque area occupied by macrophages” value was 17.1%.
